{"source": "patent US12540131B2", "about": "(Merck Sharp & Dohme LLC, priority 2019, dated 2026)"}
{"target": "GST tagged truncated human mutant G2019S LRRK2 (Homo sapiens (Human), UniProt Q5S007, G2019S)", "sequence (Q5S007 970-2527 G2019S)": "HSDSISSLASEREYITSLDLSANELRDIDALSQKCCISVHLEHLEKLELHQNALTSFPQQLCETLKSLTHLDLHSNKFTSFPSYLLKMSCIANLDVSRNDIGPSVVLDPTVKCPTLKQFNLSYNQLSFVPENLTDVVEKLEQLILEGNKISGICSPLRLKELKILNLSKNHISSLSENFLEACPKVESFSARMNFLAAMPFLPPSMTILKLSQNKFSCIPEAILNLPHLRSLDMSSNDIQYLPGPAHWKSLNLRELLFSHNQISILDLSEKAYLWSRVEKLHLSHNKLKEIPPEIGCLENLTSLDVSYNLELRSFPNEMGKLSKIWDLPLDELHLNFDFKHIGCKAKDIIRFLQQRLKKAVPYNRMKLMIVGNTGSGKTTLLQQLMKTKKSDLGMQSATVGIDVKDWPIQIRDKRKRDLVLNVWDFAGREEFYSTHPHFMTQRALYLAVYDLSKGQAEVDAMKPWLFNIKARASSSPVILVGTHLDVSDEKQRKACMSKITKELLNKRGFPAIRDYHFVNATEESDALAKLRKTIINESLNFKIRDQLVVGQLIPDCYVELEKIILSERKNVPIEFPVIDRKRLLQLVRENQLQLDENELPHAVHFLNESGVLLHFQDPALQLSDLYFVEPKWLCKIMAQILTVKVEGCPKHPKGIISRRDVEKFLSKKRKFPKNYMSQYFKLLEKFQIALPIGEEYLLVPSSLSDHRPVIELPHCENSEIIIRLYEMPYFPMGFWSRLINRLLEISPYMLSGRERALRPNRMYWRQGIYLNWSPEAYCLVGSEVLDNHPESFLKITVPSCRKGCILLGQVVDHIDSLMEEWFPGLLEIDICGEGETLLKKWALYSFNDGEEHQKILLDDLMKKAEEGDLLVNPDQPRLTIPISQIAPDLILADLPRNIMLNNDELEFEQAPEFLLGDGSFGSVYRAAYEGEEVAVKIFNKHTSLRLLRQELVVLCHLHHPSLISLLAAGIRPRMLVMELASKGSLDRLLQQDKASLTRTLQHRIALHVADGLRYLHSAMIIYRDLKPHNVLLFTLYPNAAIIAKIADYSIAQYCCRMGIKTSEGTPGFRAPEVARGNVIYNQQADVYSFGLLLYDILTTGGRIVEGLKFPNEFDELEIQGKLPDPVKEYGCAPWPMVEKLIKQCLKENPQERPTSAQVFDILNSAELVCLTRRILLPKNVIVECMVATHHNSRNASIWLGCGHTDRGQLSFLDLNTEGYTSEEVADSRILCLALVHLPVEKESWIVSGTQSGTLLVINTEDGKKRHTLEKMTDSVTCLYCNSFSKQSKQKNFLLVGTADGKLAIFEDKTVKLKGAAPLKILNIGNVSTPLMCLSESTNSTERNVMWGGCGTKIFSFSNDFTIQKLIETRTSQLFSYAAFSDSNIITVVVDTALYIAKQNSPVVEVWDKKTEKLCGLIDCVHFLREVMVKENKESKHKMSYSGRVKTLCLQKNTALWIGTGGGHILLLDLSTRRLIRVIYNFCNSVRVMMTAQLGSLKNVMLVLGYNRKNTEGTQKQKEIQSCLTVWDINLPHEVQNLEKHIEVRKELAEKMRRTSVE", "test": "LRRK2 Km ATP LanthaScreen Assay", "format": "biochemical", "conditions": "G2019S LRRK2, 134 μM ATP (Km ATP), mean values", "method_in_brief": "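Enzyme (GST-tagged, truncated) was preincubated with compound for 15 min at RT in 50 mM Tris pH 8.5, 10 mM MgCl2, 0.01% Brij-35, 1 mM EGTA, 2 mM DTT and 0.05 mM orthovanadate. Fluorescein-LRRKtide and 134 μM ATP (Km) were then added for 90 min. EDTA and Tb-anti-pERM antibody stopped the reaction; the TR-FRET 520/495 ratio gave 4-parameter IC50s, reported as mean pIC50.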"}
{"compound": "O=S1(=O)CC(N2CCC(c3cc4nc(Nc5cnn(C6CC6)c5Cl)ncc4cc3Cl)CC2)C1", "note": "[Ex-8.7, 3-(4-(6-chloro-2-((5-chloro-1-cyclopropyl-1H-pyrazol-4-yl)amino)quinazolin-7-yl)piperidin-1-yl)thietane 1,1-dioxide]", "LRRK2 pIC50": ">9.20"}
{"compound": "Clc1cc2cnc(Nc3cnn(C4CC4)c3Cl)nc2cc1C1CCN(C2COC2)CC1", "note": "[Ex-8.8, 6-chloro-N-(5-chloro-1-cyclopropyl-1H-pyrazol-4-yl)-7-[1-(oxetan-3-yl)piperidin-4-yl]quinazolin-2-amine]", "LRRK2 pIC50": ">9.20"}
{"compound": "CC1(n2ncc(Nc3ncc4cc(Cl)c(C5CCNCC5)cc4n3)c2Cl)CC1", "note": "[Ex-8.9, 6-chloro-N-[5-chloro-1-(1-methylcyclopropyl)-1H-pyrazol-4-yl]-7-(piperidin-4-yl)quinazolin-2-amine]", "LRRK2 pIC50": ">9.20"}
{"compound": "CC1(N2CCC(c3cc4nc(Nc5cnn(C6CC6)c5Cl)ncc4cc3Cl)CC2)COC1", "note": "[Ex-8.10, 6-chloro-N-(5-chloro-1-cyclopropyl-1H-pyrazol-4-yl)-7-[1-(3-methyloxetan-3-yl)piperidin-4-yl]quinazolin-2-amine]", "LRRK2 pIC50": 9.08}
{"compound": "CN1CCC(c2cc3nc(Nc4cnn(C(C)(C)CO)c4Cl)ncc3cc2Cl)CC1", "note": "[Ex-8.11, 2-(5-chloro-4-{[6-chloro-7-(1-methylpiperidin-4-yl)quinazolin-2-yl]amino}-1H-pyrazol-1-yl)-2-methylpropan-1-ol]", "LRRK2 pIC50": 8.91}
{"compound": "CC1(n2ncc(Nc3ncc4cc(Cl)c(C5CCN(C6CS(=O)(=O)C6)CC5)cc4n3)c2Cl)CC1", "note": "[Ex-8.12, 3-(4-(6-chloro-2-((5-chloro-1-(1-methylcyclopropyl)-1H-pyrazol-4-yl)amino)quinazolin-7-yl)piperidin-1-yl)thietane 1,1-dioxide]", "LRRK2 pIC50": 8.92}
{"compound": "CC1(n2ncc(Nc3ncc4cc(Cl)c(C5CCN(CCC#N)CC5)cc4n3)c2Cl)CC1", "note": "[Ex-8.13, 3-[4-(6-chloro-2-{[5-chloro-1-(1-methylcyclopropyl)-1H-pyrazol-4-yl]amino}quinazolin-7-yl)piperidin-1-yl]propanenitrile]", "LRRK2 pIC50": ">9.20"}
{"compound": "CN1CCC(c2cc3nc(Nc4cnn(C5(C)CC5)c4Cl)ncc3cc2Cl)CC1", "note": "[Ex-8.14, 6-chloro-N-[5-chloro-1-(1-methylcyclopropyl)-1H-pyrazol-4-yl]-7-(1-methylpiperidin-4-yl)quinazolin-2-amine]", "LRRK2 pIC50": ">9.20"}
{"compound": "CC1(N2CCC(c3cc4nc(Nc5cnn(C6(C)CC6)c5Cl)ncc4cc3Cl)CC2)COC1", "note": "[Ex-8.15, 6-chloro-N-[5-chloro-1-(1-methylcyclopropyl)-1H-pyrazol-4-yl]-7-[1-(3-methyloxetan-3-yl)piperidin-4-yl]quinazolin-2-amine]", "LRRK2 pIC50": ">9.20"}
{"compound": "[2H]C1([2H])OC([2H])([2H])C1N1CCC(c2cc3nc(Nc4cnn(C5CC5)c4Cl)ncc3cc2Cl)CC1", "note": "[Ex-8.16, 6-chloro-N-(5-chloro-1-cyclopropyl-1H-pyrazol-4-yl)-7-(1-(oxetan-3-yl-2,2,4,4-d4)piperidin-4-yl)quinazolin-2-amine]", "LRRK2 pIC50": 9.18}
{"compound": "COC1CC(Cn2ncc(Nc3ncc4cc(Cl)c(C5CCN(C6COC6)CC5)cc4n3)c2Cl)C1", "note": "(centres unmarked) [Ex-8.17, 6-chloro-N-{5-chloro-1-[(3-methoxycyclobutyl)methyl]-1H-pyrazol-4-yl}-7-[1-(oxetan-3-yl)piperidin-4-yl]quinazolin-2-amine]", "LRRK2 pIC50": ">9.20"}
{"compound": "N#CC1(Cn2ncc(Nc3ncc4cc(Cl)c(C5CCN(C6COC6)CC5)cc4n3)c2Cl)CC1", "note": "[Ex-8.24, 1-{[5-chloro-4-({6-chloro-7-[1-(oxetan-3-yl)piperidin-4-yl]quinazolin-2-yl}amino)-1H-pyrazol-1-yl]methyl}cyclopropane-1-carbonitrile]", "LRRK2 pIC50": 8.92}
{"compound": "OC1(Cn2ncc(Nc3ncc4cc(Cl)c(C5CCN(C6COC6)CC5)cc4n3)c2Cl)CCC1", "note": "[Ex-8.26, 1-{[5-chloro-4-({6-chloro-7-[1-(oxetan-3-yl)piperidin-4-yl]quinazolin-2-yl}amino)-1H-pyrazol-1-yl]methyl}cyclobutan-1-ol]", "LRRK2 pIC50": 8.78}
{"compound": "CC1(N2CCC(c3cc4nc(Nc5cnn(C67CC(C6)C7)c5Cl)ncc4cc3Cl)CC2)COC1", "note": "[Ex-8.38, N-[1-(bicyclo[1.1.1]pentan-1-yl)-5-chloro-1H-pyrazol-4-yl]-6-chloro-7-[1-(3-methyloxetan-3-yl)piperidin-4-yl]quinazolin-2-amine]", "LRRK2 pIC50": ">9.20"}
{"compound": "COCC12CC(n3ncc(Nc4ncc5cc(Cl)c(C6CCN(C7(C)COC7)CC6)cc5n4)c3Cl)(C1)C2", "note": "[Ex-8.39, 6-chloro-N-{5-chloro-1-[3-(methoxymethyl)bicyclo[1.1.1]pentan-1-yl]-1H-pyrazol-4-yl}-7-[1-(3-methyloxetan-3-yl)piperidin-4-yl]quinazolin-2-amine]", "LRRK2 pIC50": 8.98}
{"compound": "COC[C@]12C[C@](n3ncc(Nc4ncc5cc(Cl)c(C6CCN(C7(C)COC7)CC6)cc5n4)c3Cl)(C1)C2", "note": "[Ex-8.40]", "LRRK2 pIC50": ">9.20"}
{"compound": "(3S,4S) or (3R,4R) 6-chloro-N-(5-chloro-1-cyclopropyl-1H-pyrazol-4-yl)-7-(3-fluoropiperidin-4-yl)quinazolin-2-amine [Ex-4.1]", "LRRK2 pIC50": 9.08}
